Each compound was assayed on P. falciparum 3D7 growth, pLDH absorbance (assay: blood-stage malaria parasite growth potency – strain 3D7, dose response (AID 2305)).
Work on `COc1ccccc1CCNc1ncnc2c1[nH]c1ccc(F)cc12` yielded an IC50 of 840 nM. `COc1ccc(CNC2CCN(C)CC2)cc1-c1ccc(S(=O)(=O)NCCc2ccccn2)cc1` gave an IC50 of 1090 nM. `O[C@@H](c1ccc2ccccc2c1)[C@@H]1CN(CCc2ccccc2)CC[C@@]1(O)c1ccccc1` was tested, and the IC50 was 550 nM. In the case of `CCCC(=O)c1cnc2c(I)cccc2c1Nc1ccccc1C`, the IC50 is reported as 1160 nM. Compound `OC(CNCc1cccc(Oc2ccc(Cl)cc2)c1)c1cccc(C(F)(F)F)c1` (stereo not drawn) has an IC50 of 970 nM. With `CCc1c(C)nc2nc(Cc3cccc(F)c3)nn2c1N1CCN(c2ccccn2)CC1` the IC50 was 750 nM. With `CN(C(=O)OCc1ccccc1)C1CCC(CCN2CCC3(CC2)C(=O)NCN3c2cccc(C(F)(F)F)c2)(c2ccccc2)CC1` (stereo not drawn) the IC50 was 1180 nM. For `c1cc(CNCCc2ccncc2)cc(-c2csc(-c3nc4ccccc4[nH]3)c2)c1`, the IC50 was 260 nM. Work on `O=C(C=Cc1ccc(Cl)c(Cl)c1)NCCCCCN1CCC(CCCNC(=O)/C=C/c2ccccc2)CC1` yielded an IC50 of 590 nM. `CCCCCCn1c(Sc2ccc(C#N)c([N+](=O)[O-])c2)nnc1-c1cccc(Cl)c1` showed an IC50 of 610 nM. Compound `Oc1cc2c(cc1CN1CCN(Cc3ccccc3)CC1)CCC2` has an IC50 of 720 nM. Compound `Cc1cc(N2CCN(CC3CCN(C)CC3)CC2)nc(Nc2ccc(Cl)cc2)n1` has an IC50 of 700 nM. With `Cc1noc(-c2ccc3c(c2)CCN(CCC2CCC(NC(=O)/C=C/c4cccc(Cl)c4)CC2)CC3)n1` (stereo not drawn) the IC50 was 1000 nM. In the case of `COc1cccc(NC(=O)NCCNc2ccnc(Nc3ccc(F)cc3)n2)c1`, the IC50 is reported as 920 nM. In the case of `COc1cc2nc(NCC3CCN(C(=O)c4ccc(-c5ccc(C(=O)N(C)C)cc5C)cc4)CC3)nc(N)c2cc1OC`, the IC50 is reported as 950 nM. With `Cc1ccc2[nH]c3ccccc3c(=O)c2c1` the IC50 was 860 nM. In the case of `CC(C)C1C(O)=C(c2ccc3ccccc3c2)C(=O)N1CC1CCCCC1` (stereo not drawn), the IC50 is reported as 1130 nM. Compound `COc1ccc(CN(C)CCCc2ccc(NC(=O)c3cccc4c(=O)c5ccccc5[nH]c34)cc2)cc1OC` has an IC50 of 1370 nM. `Cc1cc(F)ccc1Oc1nc(Nc2ccc(N3CCOCC3)c(F)c2)nc2c1S(=O)(=O)CCC2` gave an IC50 of 460 nM. In the case of `Oc1cc(-c2nc(-c3ccccc3)[nH]c2-c2ccncc2)ccc1Cl`, the IC50 is reported as 810 nM. `COc1ccc(CN(C)CCCc2ccc(NC(=O)Cc3ccc4nc(-c5ccccc5)ccc4c3)cc2)cc1OC` showed an IC50 of 530 nM. For `Cc1ccccc1Nc1nc(NCCCO)c2ccccc2n1`, the IC50 was 410 nM. `O=C(/C=C/c1ccc(Cl)c(Cl)c1)N1CC[C@H]2C[C@H](N3CCC(c4c[nH]c5ccccc45)CC3)CC[C@@H]2C1` showed an IC50 of 170 nM. With `Oc1ccc(CCCc2cc(Oc3c(I)cc(CCc4ncc[nH]4)cc3I)ccc2O)cc1` the IC50 was 870 nM. With `CC(CNc1ccnc(Nc2ccc3[nH]c(=O)[nH]c3c2)n1)c1ccccc1` (stereo not drawn) the IC50 was 700 nM. For `Cc1[nH]n(-c2cccc(C(F)(F)F)c2)c(=O)c1-c1ccc(Cl)cc1`, the IC50 was 860 nM. Compound `Cc1cccc(CNc2nccc3[nH]c4ccccc4c23)c1` has an IC50 of 1900 nM. For `COc1ccc2nccc(NN=Cc3ccccc3F)c2c1`, the IC50 was 620 nM. Compound `Nc1nonc1-c1nc2c(-c3cccc(Cl)c3)nccc2n1CCCNC(=O)Cc1ccc(Cl)cc1` has an IC50 of 270 nM. In the case of `C[C@@H]1CN(c2ncc(-c3ccc(CNC4Cc5ccccc5C4)cc3)cn2)C[C@H](C)N1`, the IC50 is reported as 1160 nM. In the case of `CC(=O)c1ccc(-c2ccc(C(=O)NCCCCN3CCC(c4ccc5c(c4O)CCCC5)CC3)cc2)cc1`, the IC50 is reported as 760 nM. For `NC(N)=NC(=O)Nc1cc(Cl)c(Br)c(Cl)c1`, the IC50 was 470 nM. `O=C(Nc1ccc(Br)cc1)Nc1ccc(Cn2ncc(N3CCCNCC3)c(Cl)c2=O)cc1` showed an IC50 of 1140 nM. For `COc1ccc2c(NN=Cc3c(OC)ccc4ccccc34)cc(C)nc2c1`, the IC50 was 780 nM. For `Cc1nn(-c2ccnc3cc(Cl)ccc23)c(C)c1C(=O)NCc1cc(Cl)cc(Cl)c1`, the IC50 was 870 nM. In the case of `CC(=O)CC(=O)N1CCN(c2ccccc2)CC1`, the IC50 is reported as 1060 nM. In the case of `COc1ccc2nccc([C@@H](O)CN3CCC(NCc4ccc5cccc(O)c5n4)CC3)c2c1`, the IC50 is reported as 1130 nM. Work on `COc1ccc2nccc(NN=Cc3cccc(C)n3)c2c1` yielded an IC50 of 760 nM. For `CC(C)COc1ccc(Cl)cc1Cc1ccc(-c2nc3ccc(CCN(C)C)cc3[nH]2)o1`, the IC50 was 980 nM. Work on `CC(=O)Nc1ncc(C(=O)Nc2cccc(-c3cccc(-c4nc5c(C)cccc5[nH]4)c3)c2)s1` yielded an IC50 of 350 nM. `Nc1ccc(-c2ccc(NC(=O)Nc3cc(C(F)(F)F)ccc3F)cc2)cn1` showed an IC50 of 660 nM. `Cc1cc(CN2CC[C@H](NC(=O)c3ccc(Cl)c(Cl)c3)C2)ccc1OCCN1CCNCC1` gave an IC50 of 940 nM. `CCCC1N=C(N)N=C(N)N1c1ccc(Cl)cc1` (stereo not drawn) was tested, and the IC50 was 50 nM. In the case of `Cc1cc(O)c(CN2CCN(Cc3cccs3)CC2)cc1C(C)C`, the IC50 is reported as 720 nM. Work on `Fc1ccc(-c2cncc(-c3ccc(F)cc3)n2)cc1` yielded an IC50 of 640 nM. `COc1ccc2ncc(C#N)c(CCN3CCC(NCc4ccc5c(n4)NC(=O)CS5)CC3)c2n1` showed an IC50 of 840 nM. `COc1ccc2nccc([C@@H](O)CN3CCC(NC(=O)C(c4cc5ccccc5s4)N4CC(C)OC(C)C4)CC3)c2c1` (stereo partly drawn) showed an IC50 of 980 nM. `COc1ccc2nccc(NN=Cc3ccccc3[N+](=O)[O-])c2c1` gave an IC50 of 70 nM. `COc1cccc(C=CC(=O)N(CCN)Cc2ccccc2)c1` gave an IC50 of 820 nM. `NCC(=O)c1cc2c(cc1N)OCCO2` showed an IC50 of 1360 nM. For `NC(=O)c1cccc(C(=O)Nc2cccc(-c3cccc(-c4nc5ccc(F)cc5[nH]4)c3)c2)c1`, the IC50 was 250 nM. In the case of `COc1ccccc1N1CCN(CCCCNC(=O)c2ccc(NC(=O)c3ccc(OC(F)(F)F)cc3)cc2)CC1`, the IC50 is reported as 660 nM. `Cc1ccc(C2=NNC3(S2)C(=O)N(C)c2ccccc23)cc1` (stereo not drawn) gave an IC50 of 1020 nM. `CCc1nc(N)nc(N)c1-c1ccc(C(C)C)cc1` gave an IC50 of 830 nM. With `Cc1ccc(-c2cc(C(=O)Nc3ccc(S(=O)(=O)N4CC(C)OC(C)C4)cc3)[nH]n2)c(O)c1` (stereo not drawn) the IC50 was 610 nM. With `C#CCOc1ccc2ccccc2c1CNCCCCCCNCc1c(OCC#C)ccc2ccccc12` the IC50 was 780 nM. `CC(CCc1ccccc1)NCC(O)c1ccc2c3c(cccc13)C(=O)N2C` (stereo not drawn) gave an IC50 of 810 nM. Compound `COc1ccc(C(=O)CCC(=O)N(CCC2CCCN2C)Cc2ccc(-c3ccc(CNCCc4ccc(S(C)(=O)=O)cc4)cn3)cc2)cc1F` (stereo not drawn) has an IC50 of 870 nM. `O=C(Nc1ccc(F)cc1)NC1CCN(c2ccnc3cc(Cl)ccc23)C1` (stereo not drawn) gave an IC50 of 220 nM. With `CO/C(=C\C=C\c1cc2cc(Cl)c(Cl)cc2[nH]1)C(=O)NCCCN1CCN(c2cccc(CCCO)c2)CC1` the IC50 was 1030 nM. `Oc1ccc(CCNc2nc(NCc3ccccc3-c3ccc(C(F)(F)F)cc3)nc(N3CCCNCC3)n2)cc1` gave an IC50 of 870 nM. `CC1CCc2c(C(=O)N3CCc4ccccc4C3)csc2C1` (stereo not drawn) showed an IC50 of 780 nM. `CN(C)c1ccc(CN2CCCC(CNC(=O)c3ccc(-c4cccc(C(F)(F)F)c4)s3)C2)cc1` (stereo not drawn) was tested, and the IC50 was 1200 nM. `CCOc1ccc2c(NN=Cc3cc(OC)c(OC)c(OC)c3)cc(C)nc2c1` was tested, and the IC50 was 610 nM. For `Cc1cccc2[nH]c(-c3cccc(-c4cccc(NC(=O)c5cccnc5)c4)c3)nc12`, the IC50 was 230 nM. With `CC(=O)Nc1ccc(S(=O)(=O)Nc2ccc(Nc3nc(C)cc(N4CCCCC4)n3)cc2)cc1` the IC50 was 780 nM. For `COc1ccc(Br)cc1/C=C/C(=O)Nc1ccc(C2CCCN(C)C2)cc1` (stereo not drawn), the IC50 was 630 nM. `COc1ccc(NC(=O)/C=C/c2ccccc2Cl)cc1OCCN1CCC(N2CCCC2)CC1` was tested, and the IC50 was 790 nM. `CCOC(=O)CCCc1cc(NC2CCN(C)CC2)nc(Nc2ccc(C)cc2)n1` was tested, and the IC50 was 260 nM. `C=C(NC(=O)c1cc(C)cc(C)c1)C(=O)OC` gave an IC50 of 170 nM. For `CCC(=O)c1cc(C(=O)NCCc2cccc(OC)c2)ccc1OC`, the IC50 was 900 nM. `CCC[C@@H]1CCN[C@H]([C@H](O)c2ccnc3ccc(OC)cc23)C1` showed an IC50 of 730 nM. In the case of `Nc1nc(N)c2cc(C#Cc3ccc(-c4ccccc4)cc3)ccc2n1`, the IC50 is reported as 810 nM. `O=C(NC1CCC(N2CCN(c3cccc(C(F)(F)F)c3)CC2)CC1)c1cc2ccccc2[nH]1` (stereo not drawn) showed an IC50 of 720 nM. With `CC(C)[C@H]1C(=O)N(S(C)(=O)=O)[C@H]2CCN(C(=O)c3ccc(CN4CCCCC4)c([N+](=O)[O-])c3)[C@H]12` the IC50 was 620 nM. `OCCC1CCN(Cc2ccc(-c3ccc(-c4nc5ccccc5[nH]4)cc3)cc2)CC1` gave an IC50 of 770 nM. For `Cc1cc(=O)c(-c2ccc(Oc3ccc(Cl)cc3Cl)cc2)c(C)[nH]1`, the IC50 was 840 nM. `CC1CCN(CC[C@H]2CCCN2S(=O)(=O)c2cccc(NC(=O)Nc3ccc(C(F)(F)F)cc3)c2)CC1` gave an IC50 of 720 nM. `CCOc1ccc(N2C(N)=NC(N)=NC2(C)C)cc1` was tested, and the IC50 was 260 nM. With `O=c1cc(NCCCNC(c2ccccc2)c2ccc(Cl)c(Cl)c2)[nH]c2ccccc12` (stereo not drawn) the IC50 was 1140 nM. In the case of `Cc1cccc(C)c1CNc1ccnc2cc(Br)ccc12`, the IC50 is reported as 170 nM. With `Cc1cccc2[nH]c(-c3ccc(-c4ccc(NC(=O)Nc5ccc(Cl)c(Cl)c5)cc4)s3)nc12` the IC50 was 180 nM. `O=C(Nc1ccc(Cl)cc1)c1ccc(CN2CCCN(Cc3ccc(F)cc3)CC2)cc1` was tested, and the IC50 was 970 nM. `Cc1cccc2[nH]c(-c3ccc(-c4ccc(CN5CCC(C(N)=O)CC5)cc4)s3)nc12` was tested, and the IC50 was 910 nM. Compound `CN(C)c1cc(NC(=O)Nc2ccccc2)c2ccccc2n1` has an IC50 of 410 nM. Compound `COc1ccc(-n2nc(C(=O)NCCC3=CCCCC3)c3ccccc3c2=O)cc1` has an IC50 of 680 nM. Compound `CN(C)CCCOc1ccc(CNCc2cccc(Oc3ccc(Cl)cc3)c2)cc1` has an IC50 of 820 nM. For `Cc1ccc(NC(=O)c2ccc(N3CCC(c4ccccc4C)CC3)nc2)cc1`, the IC50 was 1400 nM. With `CN(C)CCCOc1ccc(CNCC(C)(C)c2nc(-c3ccc(Cl)c(O)c3)c(-c3ccncc3)[nH]2)cc1` the IC50 was 710 nM. Work on `O=C(Nc1ccnc2ccccc12)NC1CCN(Cc2ccccc2)CC1` yielded an IC50 of 990 nM. `CCCCCCCOc1ccc(NC(=O)Nc2ccc(Cn3ncc(N4CCCNCC4)c(Cl)c3=O)cc2)cc1` showed an IC50 of 920 nM. In the case of `NC1=NC2(CCCCC2)N(OCCCCCCCCNc2nc(N)nc(N)n2)C(N)=N1`, the IC50 is reported as 60 nM. For `CO/C(=C\C=C\c1cc2cc(Cl)c(Cl)cc2[nH]1)C(=O)NCCCN1CCC(c2ccccc2)CC1`, the IC50 was 910 nM. For `O=C(Nc1ccc(Cl)cc1)c1cc(Cl)ccc1NC(=O)C1(c2ccc(Cl)cc2)CCCC1`, the IC50 was 1100 nM. `O=C(Nc1ccc(F)c(C(F)(F)F)c1)N[C@H]1CCN(CCCCCNC(=O)[C@@H]2C[C@H]2c2ccc(Cl)c(Cl)c2)C1` showed an IC50 of 160 nM. For `COc1ccc(Cl)cc1-c1nc(C(=O)NCCN2CCCCC2)c(C(C)C)s1`, the IC50 was 750 nM. Work on `Cc1ccc2c(=O)n(C)c(=O)n(C)c2n1` yielded an IC50 of 820 nM. `COc1ccc2nccc(NN=CC=Cc3ccccc3)c2c1` was tested, and the IC50 was 740 nM. For `CC(Cc1ccc(OCCCCOc2ccccc2)cc1)NCCc1ccccc1Cl` (stereo not drawn), the IC50 was 180 nM. Compound `CCOc1cc(N)c2nc3ccc([N+](=O)[O-])cc3cc2c1` has an IC50 of 150 nM. `CC1(C)N=C(N)NC(NOCCCCCCONC2=NC(C)(C)N=C(N)N2)=N1` was tested, and the IC50 was 30 nM. Compound `CN(C)c1ccc(C=CC(=O)NC(=O)c2ccccc2O)cc1` has an IC50 of 230 nM. In the case of `CCN1CCN(c2cc(C)c3cc(NC(=O)c4cncc(Br)c4)ccc3n2)CC1`, the IC50 is reported as 660 nM.
